Laboratory results from patent publication US11739053B2, “P62-ZZ chemical inhibitor” (ID4PHARMA, LLC, priority 2011, dated 2023).

Legend:
[1] = test system: GFP-labeled human myeloma MM1.S cells; assay: GFP-labeled MM1.S myeloma cell growth with/without stromal cells, fluorescence microscopy; format: cell-based; conditions: 10 μM, 72 hours, FIG. 3
Procedure: FIG. 3 is a graph depicting MM cell growth inhibition. Data is shown as the mean±SD (n=5). *: P<0.01 compared to no-inhibitor cultures without stromal cells. **: P<0.01 compared to no-treatment co-cultured with stromal cells.
Compound 3 was tested for its capacity to block MM-stimulated signaling in marrow stromal cells, thereby resulting in less bone destruction and MM growth. The effects of the compound 3 on GFP-labeled MM1.S myeloma cell growth with/without stromal cells, IL-6 and VCAM-1 expression on stromal cells induced by TNF-α and OCL formation, and TNF-α induced PKCζ phosphorylation, the specific kinase enzyme activated p62-ZZ, were examined. GFP-labeled MM1.S myeloma cells or normal human CFU-GM, a source of OCL precursors, were then co-cultured with human stromal cells with the p62-ZZ inhibitor. The 10 μM of inhibitor compound 3 blocked MM cell growth by 90% compared to vehicle (0.1% DMSO). […] VCAM-1 expression and IL-6 production induced by TNF-α on stromal cells was blocked by 30% and 90% respectively compared to vehicle levels. Furthermore, TNF-α induced PKC, phosphorylation blocked was in stromal cells and MM1.S when pre-treated with this p62-ZZ inhibitory compound for 3 hours.
Primary human bone marrow stromal cells were maintained in 10% FCS-IMDM. Stromal cells (1.5×10^3 cells/well) were cultured one day prior to the start of co-culture. Green fluorescent protein (GFP)-labeled human myeloma MM1.S cells (7.5×10^3 cells/well) were then cultured with/without stromal cells in the presence or absence of the p62-ZZ inhibitors (#1-6) for 72 hours. MM cell growth was determined by fluorescence microscopy.

[2] = test system: IL-6 production; assay: TNF-α induced IL-6 production by marrow stromal cells, ELISA; format: cell-based, human; conditions: normal human stromal cells, FIG. 5B
Procedure: FIG. 5A-B: 5A. VCAM-1 expression using Western blot analysis. Normal human stromal cells were cultured with/without TNF and p62-ZZ inhibitors (#1-6) for 48 hours. The cell lysates were collected and VCAM-1 expression was measured using an anti-VCAM-1 antibody (Santa Cruz). FIG. 5B. IL-6 production by human and mouse marrow stromal cells by ELISA. Normal human and mouse marrow stromal cells were cultured with/without TNFα and p62-ZZ inhibitors (#1-6) for 48 hours. The cell culture media were collected and IL-6 production measured using an IL-6 ELISA kit (R &D). Data are shown as the means (n=2).
Normal human or mouse marrow stromal cells were maintained in 10% FBS-IMDM and treated with p62-ZZ inhibitors (#1-6) for 3 hours. Then TNFα or vehicle was added for 48 hours. Cell lysates were collected and VCAM-1 expression measured by Western blot using an anti-VCAM-1 antibody (Santa Cruz). The culture media were collected and IL-6 production was measured using an IL-6 ELISA kit (R&D Company).

| SMILES | MM cell growth (result in words) [1] | IL-6 production by TNF-α stimulated normal human stromal cells (result in words) [2] |
| --- | --- | --- |
| O=C(O)CNC(=O)c1ccc(NCc2oc(CO)c(CNc3ccc(C(=O)NCC(=O)O)cc3)c(=O)c2O)cc1 [Compound 4] | directly blocked MM cell growth | – |
| OC[C@@H](O)[C@@H](O)[C@H](O)[C@H](O)C(/C=N/Nc1ccccc1)=N/Nc1ccccc1 [Compound 2] | directly blocked MM cell growth | blocked IL-6 production |
| CCOc1ccccc1/C=N/Nc1ccc(S(=O)(=O)c2ccc(N/N=C/c3ccccc3OCC)cc2)cc1 [Compound 5] | – | blocked IL-6 production |
